Source: patent US20260256909A1, “COMBINATION OF A BTN3A ACTIVATING ANTIBODY, A BCL2 INHIBITOR AND HYPOMETHYLATING AGENT FOR USE IN TREATING CANCER” (Imcheck Therapeutics, priority 2022, published 2026)
Where two headings read alike, the source gives them in different places.

Legend:
Type in all cases: cell-based, human
Vγ9Vδ2 T cells = assay: Survival of Vγ9Vδ2 T cells in HD-PBMC (Caspase3/7 and dead cell marker, flow cytometry); conditions: HD-PBMC, 48 h; for CC50: in presence of isotype control (hIgG1S 1 μg/mL)
Experimental: The effect of ICT01 on the survival of Vγ9Vδ2 T cells upon treatment with Bcl-2 family member inhibitors was assessed in Peripheral Blood Mononuclear Cells from Healthy Donors (HD-PBMC) using the apoptotic marker Caspase3/7 and a dead cell marker in flow cytometry analysis.
Peripheral Blood Mononuclear Cells (PBMC) were isolated by Ficoll density gradient centrifugation of peripheral blood (EDTA-buffy coats) from healthy donors (HD, n=4-6), cultured in PBMC medium (RPMI 1640 Medium supplemented with 10% Fetal Bovine Serum (FBS), 1% Penicillin/Streptomycin and 1 mM Sodium Pyruvate) and treated with ICT01 or its isotype control (hIgG1S) used at 1 μg/mL in the presence or absence of increasing concentrations of Venetoclax (0-0.1 μM), 5-Azacytidine (0-0.4 μM) or the combination, or ABT-737 (0-1.875 μM), Navitoclax (0-1.875 μM) or MIK665 (0-1.875 μM). Cells were harvested on day 2, centrifuged at 1800 rpm for 5 minutes and then incubated 10 minutes at room temperature (RT) with 25 μl of FcR blocking reagent (Miltenyi Biotec) before adding 25 μL of the following antibody mix prepared in PBS+2% FBS+2 mM EDTA (FACS buffer): anti-CD4-BUV395, CD56-BV421, Vd2-PE, CD3-PE-CF594 and CD8-A700 antibodies for the identification of immune subsets, anti-CD25-BV650 and CD69-APC antibodies were added to monitor activation status of Vγ9Vδ2 T cells, and a viability marker (LIVE/DEAD™ Fixable Dead Cell Stain) was added to distinguish live from dead cells. Cells were incubated 20 minutes at room temperature (RT) and washed 2 times with FACS buffer. A Caspase3/7 Green detection reagent (ThermoFisher) was added to determine apoptosis and cells were incubated for 30 minutes at RT before flow cytometry analysis.
In a similar experiment, freshly isolated PBMC were stimulated with ICT01 or its isotype control hIgG1S for 1 day prior to a 2 day-treatment with Venetoclax (FIG. 3a). The number of live Vγ9Vδ2 T cells was assessed by flow cytometry at the end of the incubation time.

KG1a AML cells = assay: Killing of KG1a AML cells in co-culture with HD-PBMC (flow cytometry); conditions: for KG1a cell death / reduction of living KG1a cells as compared to control: alone or with ICT01 0.1 μg/mL, HD-PBMC ratio 5:1, 2 days
Experimental: A) Sensitivity of KG1a cell line to Venetoclax, 5-Azacytidine or the combination. […] N=2 experiments. B) Mean±SEM relative number of Live KG1a AML cells monitored by flow cytometry after 3 days of co-culture with HD-PBMC (E:T ratio 25:1) treated with ICT01 (black) or its isotype control (hIgG1S, light grey) at 0.1 or 1 μg/mL. N=6, each dot represents one healthy donor. C) Schematic representation of treatment schedule for killing of KG1a AML cells by HD-PBMC. D) Relative number of Live KG1a AML cells (Mean±SEM) (left) and Frequency of Live KG1a AML cell relative to no Venetoclax or 5-Azacytidine treatment (Mean±SEM) (right) after 3 days of co-culture with HD-PBMC in presence of ICT01 (black) or its isotype control (hIgG1S, light grey) and treatment with Venetoclax, 5-Azacytidine or the combination. N=6, each dot represents one healthy donor, * p<0.05, Wilcoxon test.
KG1a cells were co-cultured with HD-PBMC at ratio 5:1 in presence of m20.1 or isotype control (0.1 μg/mL). After 6 hrs, indicated concentrations of Venetoclax, 5-Azacytidine or the combination were added to the culture. Relative number of live KG1a was monitored after 48 hrs by flow cytometry. […] N=6, each dot represents one healthy donor, * p<0.05, ** p<0.01, *** p<0.001, **** p<0.0001, 2 way ANOVA.
(§1) KG1a or MOLM14 AML cell lines were co-cultured with HD-PBMC at ratio 5:1 in presence of ICT01 or isotype control (0.1 μg/mL). After 6 hrs, indicated concentrations of ABT-737, Navitoclax or MIK665 were added to the culture. A) Relative numbers of live KG1a cells (Mean±SEM) after 2 days of co-culture with HD-PBMC in presence of ICT01 (black) or its isotype control hIgG1S (light grey) and treatment with indicated concentration of ABT-737. B) Relative numbers of live KG1a cells (Mean±SEM) after 2 days of co-culture with HD-PBMC in presence of ICT01 (black) or its isotype control hIgG1S (light grey) and treatment with indicated concentration of Navitoclax. C) Relative numbers of live MOLM14 cells (Mean±SEM) after 2 days of co-culture with HD-PBMC in presence of ICT01 (black) or its isotype control hIgG1S (light grey) and treatment with indicated concentration of MIK665. N=6 HD, each dot represents one healthy donor, * p<0.05, 2 way ANOVA.
The effect of Venetoclax and 5-Azacytidine on anti-BTN3A antibodies-induced killing of AML cell lines by Vγ9Vδ2 T cells was assessed by measuring the relative number of surviving target cells in a HD-PBMC-AML cell co-culture using flow cytometry.
Then, KG1a AML cells were stained with CellTrace CFSE Proliferation dye (ThermoFisher) to allow for specific detection by flow cytometry, counted, put into a co-culture with thawed HD-PBMC and treated with the anti-BTN3A mAbs ICT01 or m20.1 or their respective isotype controls (hIgG1S or mIgG1) in PBMC medium (RPMI 1640 Medium supplemented with 10% Fetal Bovine Serum (FBS) and 1 mM Sodium Pyruvate). On day one of culture, increasing concentrations of Venetoclax (0-0.4 μM), 5-Azacytidine (0-0.4 μM) or the combination were added. Cells were harvested on day 3 of co-culture, centrifuged at 1800 rpm for 5 minutes and then incubated 10 minutes at room temperature (RT) with 25 μl of FcR blocking reagent (Miltenyi Biotec) before adding 25 μL of the following antibody mix prepared in PBS+2% FBS+2 mM EDTA (FACS buffer): anti-CD56-BV421, CD19-BV421, CD14-BV785, Tyb-PE and CD3-AF700 antibodies for the identification of immune subsets, and a viability marker (LIVE/DEAD™ Fixable Dead Cell Stain) was added to distinguish live and dead cells. Cells were incubated 20 minutes at room temperature, washed once in FACS buffer and once in AnnexinV staining buffer. An AnnexinV-APC probe mixed with CountBright Absolute Counting Beads (Invitrogen) was added to determine apoptosis and relative cell numbers, followed by 15 minutes incubation at RT before flow cytometry analysis. […]

MOLM14 cells = assay: Killing of MOLM14 AML cells in co-culture with HD-PBMC (flow cytometry); conditions: alone or with ICT01 0.1 μg/mL, HD-PBMC ratio 5:1, 2 days
Experimental: as §1
The effect of the three Bcl-2 family member inhibitors ABT-737, Navitoclax and MIK665, on ICT01-induced killing of AML cell lines by Vγ9Vδ2 T cells was assessed by measuring the relative number of surviving target cells in a HD-PBMC-AML cells co-culture using flow cytometry.
For assays using ABT-737 or Navitoclax, KG1a cells were used. […] Therefore, MOLM14 cells, which express MCL-1, were used in killing assays assessing the activity of ICT01 combined with MIK665.

[1] = in presence of ICT01 (1 μg/mL), read-out: EC50 of Vγ9Vδ2 T cell death
[2] = Homo sapiens, T-cell, read-out: EC50 of Vγ9Vδ2 T cell death
[3] = Homo sapiens, T-cell, inhibitor alone (FIG. 2a), read-out: EC50 of apoptosis and death of Vγ9Vδ2 T cells
[4] = Bcl-2 family inhibitor at 0.25 μM
[5] = Bcl-2 family inhibitor at 0.5 μM

Structure (SMILES): CN(C)CC[C@H](CSc1ccccc1)Nc1ccc(S(=O)(=O)NC(=O)c2ccc(N3CCN(Cc4ccccc4-c4ccc(Cl)cc4)CC3)cc2)cc1[N+](=O)[O-] [ABT-737]
- EC50 (Vγ9Vδ2 T cells; [1]): 460 nM
- CC50 (Vγ9Vδ2 T cells; [2]): 230 nM
- EC50 (Vγ9Vδ2 T cells; [3]): 240 nM
- KG1a cell death / reduction of living KG1a cells as compared to control (KG1a AML cells; [4]): ~ 34%
- KG1a cell death / reduction of living KG1a cells as compared to control (KG1a AML cells; [5]): ~ 54%

Structure (SMILES): COc1ccccc1-c1nccc(COc2ccccc2C[C@@H](Oc2ncnc3sc(-c4ccc(F)cc4)c(-c4ccc(OCCN5CCN(C)CC5)c(Cl)c4C)c23)C(=O)O)n1 [MIK665, (R)-2-((5-(3-chloro-2-methyl-4-(2-(4-methylpiperazin-1-yl)ethoxy)phenyl)-6-(4-fluorophenyl)thieno[2,3-d]pyrimidin-4-yl)oxy)-3-(2-((2-(2-methoxyphenyl)pyrimidin-4-yl)methoxy)phenyl)propanoic acid]
- EC50 (Vγ9Vδ2 T cells; [1]): 780 nM
- CC50 (Vγ9Vδ2 T cells; [2]): 240 nM
- EC50 (Vγ9Vδ2 T cells; [3]): 240 nM
- sensitivity of KG1a to MIK665 treatment (KG1a AML cells; cell line does not express MCL-1): completely resistant
- cell death / reduction of living MOLM14 cells as compared to control (MOLM14 cells; MIK665 at 0.025 μM): ~ 52%
- cell death / reduction of living MOLM14 cells as compared to control (MOLM14 cells; MIK665 at 0.05 μM): ~ 72%

Structure (SMILES): CC1(C)CCC(c2ccc(Cl)cc2)=C(CN2CCN(c3ccc(C(=O)NS(=O)(=O)c4ccc(N[C@H](CCN5CCOCC5)CSc5ccccc5)c(S(=O)(=O)C(F)(F)F)c4)cc3)CC2)C1 [Navitoclax, 4-[4-[[2-(4-chlorophenyl)-5,5-dimethylcyclohexen-1-yl]methyl]piperazin-1-yl]-N-[4-[[(2R)-4-morpholin-4-yl-1-phenylsulfanylbutan-2-yl]amino]-3-(trifluoromethylsulfonyl)phenyl]sulfonylbenzamide]
- EC50 (Vγ9Vδ2 T cells; [1]): 200 nM
- CC50 (Vγ9Vδ2 T cells; [2]): 160 nM
- EC50 (Vγ9Vδ2 T cells; [3]): 160 nM
- KG1a cell death / reduction of living KG1a cells as compared to control (KG1a AML cells; [4]): ~ 51%
- KG1a cell death / reduction of living KG1a cells as compared to control (KG1a AML cells; [5]): ~ 71%
